From patent publication US10287305B2, “Substituted piperidine compound and use thereof” (Takeda Pharmaceutical Company Limited, priority 2016, dated 2019)

Target: human orexin type 2 receptor (hOX2R) (Homo sapiens (Human), UniProt O43614)
Experiment: Measurement of orexin type 2 receptor agonist activity (Experimental Example 2-1, FLIPR TETRA, intracellular Ca2+)
Assay type: cell-based
Settings: CHO dhfr- cells expressing hOX2R, FLIPR TETRA, Fluo-4AM; for Emax: read-out: Emax (%)

human orexin type 2 receptor (hOX2R), sequence (O43614 whole entry): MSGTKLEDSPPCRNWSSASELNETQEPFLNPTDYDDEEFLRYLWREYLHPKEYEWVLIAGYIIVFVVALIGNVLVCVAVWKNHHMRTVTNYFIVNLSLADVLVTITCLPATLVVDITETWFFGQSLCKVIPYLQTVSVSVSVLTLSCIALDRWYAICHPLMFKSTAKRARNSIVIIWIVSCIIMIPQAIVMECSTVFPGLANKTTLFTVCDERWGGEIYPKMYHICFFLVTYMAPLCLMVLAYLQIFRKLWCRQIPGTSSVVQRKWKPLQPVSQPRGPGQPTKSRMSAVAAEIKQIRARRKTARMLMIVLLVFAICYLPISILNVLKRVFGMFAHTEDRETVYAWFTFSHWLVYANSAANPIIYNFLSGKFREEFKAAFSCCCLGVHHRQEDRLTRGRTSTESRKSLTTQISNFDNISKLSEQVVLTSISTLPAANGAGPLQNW

| EC50 | Emax | Emax (%) | Structure (SMILES) |
| --- | --- | --- | --- |
| 3300 nM | 81% |  | CCNC(=O)N1CCC[C@H](NS(C)(=O)=O)[C@@H]1CO[C@H]1C[C@H](Oc2ccccc2)C1 (relative stereo) [Example 281, cis-N-ethyl-3-((methylsulfonyl)amino)-2-(((trans-3-phenoxycyclobutyl)oxy)methyl)piperidine-1-carboxamide] |
| 260 nM | 95% |  | CC1(OC(=O)N2CCC[C@H](NS(C)(=O)=O)[C@@H]2COC2CCN(c3ncccn3)CC2)CC1 (relative stereo) [Example 284, 1-methylcyclopropyl cis-3-((methylsulfonyl)amino)-2-(((1-(pyrimidin-2-yl)piperidin-4-yl)oxy)methyl)piperidine-1-carboxylate] |
| 130 nM | 93% |  | CS(=O)(=O)N[C@H]1CCCN(C(=O)OCC(F)(F)F)[C@H]1COC1CCN(c2ncccn2)CC1 (relative stereo) [Example 286, 2,2,2-trifluoroethyl cis-3-((methylsulfonyl)amino)-2-(((1-(pyrimidin-2-yl)piperidin-4-yl)oxy)methyl)piperidine-1-carboxylate] |
| 150 nM | 99% |  | CS(=O)(=O)N[C@H]1CCCN(C(=O)OC2CC2)[C@H]1COC1CCN(c2ncccn2)CC1 (relative stereo) [Example 287, cyclopropyl cis-3-((methylsulfonyl)amino)-2-(((1-(pyrimidin-2-yl)piperidin-4-yl)oxy)methyl)piperidine-1-carboxylate] |
| 3300 nM | 79% |  | CS(=O)(=O)N[C@H]1CCCN(C(=O)OC2CC2)[C@H]1COC1CCN(c2ccccc2F)CC1 (relative stereo) [Example 290, cyclopropyl cis-2-(((1-(2-fluorophenyl)piperidin-4-yl)oxy)methyl)-3-((methylsulfonyl)amino)piperidine-1-carboxylate] |
| 540 nM | 78% |  | CC(=O)N1CCC[C@H](NS(C)(=O)=O)[C@@H]1CO[C@H]1CC[C@@H](c2ccccc2OC(F)(F)F)CC1 (relative stereo) [Example 293, N-(cis-1-acetyl-2-(((cis-4-(2-(trifluoromethoxy)phenyl)cyclohexyl)oxy)methyl)piperidin-3-yl)methanesulfonamide] |
| 130 nM | 95% |  | CS(=O)(=O)N[C@H]1CCCN(C(=O)C2CC2)[C@H]1CO[C@H]1CC[C@@H](c2ccccc2OC(F)(F)F)CC1 (relative stereo) [Example 294, N-(cis-1-(cyclopropylcarbonyl)-2-(((cis-4-(2-(trifluoromethoxy)phenyl)cyclohexyl)oxy)methyl)piperidin-3-yl)methanesulfonamide] |
| 4.2 nM | 93% |  | CCNC(=O)N1CCC[C@H](NS(C)(=O)=O)[C@@H]1CO[C@H]1CC[C@@H](c2ccccc2OC(F)(F)F)CC1 (relative stereo) [Example 295, cis-N-ethyl-3-((methylsulfonyl)amino)-2-(((cis-4-(2-(trifluoromethoxy)phenyl)cyclohexyl)oxy)methyl)piperidine-1-carboxamide] |
| 2100 nM | 76% |  | CC(=O)N1CCC[C@H](NS(C)(=O)=O)[C@@H]1CO[C@H]1CC[C@@H](c2cccc(OC(F)(F)F)c2)CC1 (relative stereo) [Example 297, N-(cis-1-acetyl-2-(((cis-4-(3-(trifluoromethoxy)phenyl)cyclohexyl)oxy)methyl)piperidin-3-yl)methanesulfonamide] |
|  | 92% |  | COC(=O)N1CCC[C@H](NS(C)(=O)=O)[C@@H]1CO[C@H]1CC[C@@H](c2cccc(OC(F)(F)F)c2)CC1 (relative stereo) [Example 298, methyl cis-3-((methylsulfonyl)amino)-2-(((cis-4-(3-(trifluoromethoxy)phenyl)cyclohexyl)oxy)methyl)piperidine-1-carboxylate] |
| 95 nM | 90% |  | CS(=O)(=O)N[C@H]1CCCN(C(=O)C2CC2)[C@H]1CO[C@H]1CC[C@@H](c2cccc(OC(F)(F)F)c2)CC1 (relative stereo) [Example 299, N-(cis-1-(cyclopropylcarbonyl)-2-(((cis-4-(3-(trifluoromethoxy)phenyl)cyclohexyl)oxy)methyl)piperidin-3-yl)methanesulfonamide] |
| 9.7 nM | 94% |  | CCNC(=O)N1CCC[C@H](NS(C)(=O)=O)[C@@H]1CO[C@H]1CC[C@@H](c2cccc(OC(F)(F)F)c2)CC1 (relative stereo) [Example 300, cis-N-ethyl-3-((methylsulfonyl)amino)-2-(((cis-4-(3-(trifluoromethoxy)phenyl)cyclohexyl)oxy)methyl)piperidine-1-carboxamide] |
| 21 nM | 105% |  | CCS(=O)(=O)N[C@H]1CCCN(C(=O)OC)[C@H]1CO[C@H]1CC[C@@H](c2ccccc2)CC1 (relative stereo) [Example 301, methyl cis-3-((ethylsulfonyl)amino)-2-(((cis-4-phenylcyclohexyl)oxy)methyl)-piperidine-1-carboxylate] |
| 1600 nM | 98% |  | CC(C)OC(=O)N1CCC[C@H](NS(C)(=O)=O)[C@@H]1CO[C@H]1C[C@@H](c2ccccc2)C1 (relative stereo) [Example 307, isopropyl cis-3-((methylsulfonyl)mino)-2-(((cis-3-phenylcyclobutyl)oxy)methyl)-piperidine-1-carboxylate] |
| 590 nM | 109% |  | CS(=O)(=O)N[C@H]1CCCN(C(=O)CC2CC2)[C@H]1CO[C@H]1C[C@@H](c2ccccc2)C1 (relative stereo) [Example 308, N-(cis-1-(cyclopropylacetyl)-2-(((cis-3-phenylcyclobutyl)oxy)methyl)-piperidin-3-yl)methanesulfonamide] |
| 3200 nM | 98% |  | CCc1ccccc1[C@H]1CC[C@@H](OC[C@@H]2NCCC[C@@H]2NS(C)(=O)=O)CC1 (relative stereo) [Example 311, N-(cis-2-(((cis-4-(2-ethylphenyl)cyclohexyl)oxy)methyl)-piperidin-3-yl)methanesulfonamide] |
| 270 nM | 95% |  | CC(OC(=O)N1CCC[C@H](NS(C)(=O)=O)[C@@H]1COC1CCN(c2ncccn2)CC1)C(F)(F)F (relative stereo) [Example 313, 1,1,1-trifluoropropan-2-yl cis-3-((methylsulfonyl)amino)-2-(((1-(pyrimidin-2-yl)piperidin-4-yl)oxy)methyl)piperidine-1-carboxylate] |
| 170 nM | 103% |  | CN(C)S(=O)(=O)N[C@H]1CCCN(C(=O)OCC(F)(F)F)[C@H]1COC1CCN(c2ncccn2)CC1 (relative stereo) [Example 315, 2,2,2-trifluoroethyl cis-3-((dimethylsulfamoyl)amino)-2-(((1-(pyrimidin-2-yl)piperidin-4-yl)oxy)methyl)piperidine-1-carboxylate] |
| 330 nM | 91% |  | CC(OC(=O)N1CCC[C@H](NS(=O)(=O)N(C)C)[C@@H]1COC1CCN(c2ncccn2)CC1)C(F)(F)F (relative stereo) [Example 316, 1,1,1-trifluoropropan-2-yl cis-3-((dimethylsulfamoyl)amino)-2-(((1-(pyrimidin-2-yl)piperidin-4-yl)oxy)methyl)piperidine-1-carboxylate] |
| 2200 nM | 37% |  | CC(=O)N1CCC[C@H](NS(C)(=O)=O)[C@@H]1CO[C@H]1CC[C@@H](c2c(C)cccc2C)CC1 (relative stereo) [Example 321, N-(cis-1-acetyl-2-(((cis-4-(2,6-dimethylphenyl)cyclohexyl)oxy)-methyl)piperidin-3-yl)methanesulfonamide] |
|  |  | 71% | COC(=O)N1CCC[C@H](NS(C)(=O)=O)[C@@H]1CO[C@H]1CC[C@@H](c2ccccc2C(F)F)CC1 (relative stereo) [Example 322, methyl cis-2-(((cis-4-(2-(difluoromethyl)phenyl)cyclohexyl)-oxy)methyl)-3-((methylsulfonyl)amino)piperidine-1-carboxylate] |
| 5000 nM | 75% |  | CS(=O)(=O)N[C@H]1CCCN[C@H]1COC1CCC(F)(c2cc(F)cc(F)c2)CC1 (relative stereo) [Example 325, N-(cis-2-(((4-(3,5-difluorophenyl)-4-fluorocyclohexyl)oxy)methyl)-piperidin-3-yl)methanesulfonamide] |
| 2600 nM | 86% |  | CS(=O)(=O)N[C@H]1CCCN(C(=O)C2CC2)[C@H]1COC1CCC(F)(c2cc(F)cc(F)c2)CC1 (relative stereo) [Example 327, N-(cis-1-(cyclopropylcarbonyl)-2-(((4-(3,5-difluorophenyl)-4-fluorocyclohexyl)oxy)methyl)-piperidin-3-yl)methanesulfonamide] |
| 7100 nM | 72% |  | CS(=O)(=O)N[C@H]1CCCN(C(=O)C2CC2)[C@H]1CO[C@H]1CC[C@@H](c2ncccn2)CC1 (relative stereo) [Example 328, N-(cis-1-(cyclopropylcarbonyl)-2-(((cis-4-(pyrimidin-2-yl)cyclohexyl)oxy)methyl)piperidin-3-yl)methanesulfonamide] |
| 610 nM | 93% |  | CS(=O)(=O)N[C@H]1CCCN[C@H]1CO[C@H]1CC[C@@H](c2ccccc2Cl)CC1 (relative stereo) [Example 332, N-(cis-2-(((cis-4-(2-chlorophenyl)cyclohexyl)oxy)-methyl)piperidin-3-yl)methanesulfonamide] |
| 27 nM | 93% |  | CC(=O)N1CCC[C@H](NS(C)(=O)=O)[C@@H]1CO[C@H]1CC[C@@H](c2ccccc2Cl)CC1 (relative stereo) [Example 334, N-(cis-1-acetyl-2-(((cis-4-(2-chlorophenyl)cyclohexyl)oxy)-methyl)piperidin-3-yl)methanesulfonamide] |
| 6.1 nM | 101% |  | COC(=O)N1CCC[C@H](NS(C)(=O)=O)[C@@H]1CO[C@H]1CC[C@@H](c2ccccc2Cl)CC1 (relative stereo) [Example 335, methyl cis-2-(((cis-4-(2-chlorophenyl)cyclohexyl)oxy)-methyl)-3-((methylsulfonyl)amino)piperidine-1-carboxylate] |
